Measurements from the NIST ThermoML archive (doi:10.1016/j.jct.2017.03.026).
Where “and” joins values, the source holds several entries; their conditions need not be identical. Equal entries are not always repeated. ± gives the expanded uncertainty stated by the source.

Test: molar heat capacity at constant pressure
Conditions: 101.33 kPa, Crystal, Small (less than 1 g) adiabatic calorimetry

O.O.O.O.O.O=S(=O)([O-])[O-].[Cu+2] [copper(II) sulfate pentahydrate]
Conditions	molar heat capacity at constant pressure
263.9 K	273.18 ± 1.3 J/K/mol
263.97 K	273.31 ± 1.3 J/K/mol
264.29 K	274.33 ± 1.3 J/K/mol
264.46 K	276.88 ± 1.3 J/K/mol
264.57 K	275.1 ± 1.3 J/K/mol
264.65 K	275.18 ± 1.3 J/K/mol
264.69 K	262.84 ± 0.97 J/K/mol
264.78 K	276.45 ± 1.3 J/K/mol
264.88 K	264.12 ± 0.97 J/K/mol
264.96 K	275.1 ± 1.3 J/K/mol
265.24 K	276.28 ± 1.3 J/K/mol
265.28 K	276.6 ± 1.3 J/K/mol
265.59 K	277.08 ± 1.3 J/K/mol
265.9 K	279.45 ± 1.3 J/K/mol
265.91 K	277.83 ± 1.3 J/K/mol and 277.48 ± 1.3 J/K/mol
266.22 K	277.65 ± 1.3 J/K/mol
266.54 K	279.67 ± 1.3 J/K/mol
266.57 K	280.8 ± 1.3 J/K/mol
266.85 K	280.57 ± 1.3 J/K/mol
267.02 K	283.47 ± 1.3 J/K/mol
267.12 K	265.84 ± 0.97 J/K/mol
267.16 K	281.25 ± 1.3 J/K/mol
267.24 K	282.99 ± 1.3 J/K/mol
267.47 K	265.72 ± 0.98 J/K/mol
267.48 K	282.69 ± 1.3 J/K/mol
267.49 K	288.14 ± 1.3 J/K/mol
267.79 K	284.49 ± 1.3 J/K/mol
267.89 K	286.74 ± 1.3 J/K/mol
268.1 K	286.29 ± 1.3 J/K/mol
268.14 K	289.09 ± 1.3 J/K/mol
268.41 K	287.96 ± 1.3 J/K/mol
268.56 K	290.56 ± 1.3 J/K/mol
268.72 K	290.51 ± 1.3 J/K/mol
269.03 K	293.88 ± 1.4 J/K/mol
269.21 K	298.25 ± 1.4 J/K/mol
269.26 K	299.3 ± 1.4 J/K/mol
269.34 K	297.25 ± 1.5 J/K/mol
269.69 K	302.97 ± 1.5 J/K/mol
269.86 K	308.74 ± 1.5 J/K/mol
270 K	267.7 ± 1 J/K/mol and 309.44 ± 1.7 J/K/mol
270.26 K	267.96 ± 0.99 J/K/mol
270.3 K	319.67 ± 1.6 J/K/mol
270.38 K	339.72 ± 1.7 J/K/mol and 332.91 ± 1.7 J/K/mol
270.48 K	333.13 ± 1.6 J/K/mol
270.59 K	334.95 ± 1.5 J/K/mol
270.88 K	351.88 ± 1.6 J/K/mol
271.09 K	383.64 ± 1.7 J/K/mol
271.16 K	376.43 ± 1.8 J/K/mol
271.44 K	383.42 ± 1.8 J/K/mol
271.46 K	344.42 ± 1.7 J/K/mol
271.62 K	269.24 ± 1 J/K/mol
271.71 K	298.82 ± 1.5 J/K/mol
271.74 K	277.83 ± 1.4 J/K/mol
272.06 K	278.7 ± 1.7 J/K/mol
272.36 K	280.4 ± 1.7 J/K/mol
272.37 K	278.52 ± 1.7 J/K/mol
272.63 K	281.05 ± 1.3 J/K/mol
272.69 K	278.7 ± 1.3 J/K/mol
273.01 K	279.65 ± 1.3 J/K/mol
273.04 K	280.4 ± 1.3 J/K/mol
273.15 K	269.83 ± 0.99 J/K/mol and 270.1 ± 1 J/K/mol
273.27 K	284.34 ± 1.3 J/K/mol
273.33 K	280.47 ± 1.3 J/K/mol
273.64 K	279.37 ± 1.3 J/K/mol
273.74 K	281.2 ± 1.3 J/K/mol
273.8 K	282.84 ± 1.3 J/K/mol
273.88 K	270.91 ± 1 J/K/mol
273.96 K	280.1 ± 1.3 J/K/mol
274.28 K	278.85 ± 1.3 J/K/mol
274.4 K	281.05 ± 1.3 J/K/mol
274.64 K	282.74 ± 1.3 J/K/mol
274.93 K	283.52 ± 1.3 J/K/mol
274.96 K	280.85 ± 1.3 J/K/mol
275.07 K	282.49 ± 1.3 J/K/mol
275.27 K	285.02 ± 1.3 J/K/mol
275.6 K	285.39 ± 1.3 J/K/mol
275.73 K	282.32 ± 1.3 J/K/mol
275.91 K	281.82 ± 1.3 J/K/mol
275.93 K	272.18 ± 1 J/K/mol
276.06 K	284.92 ± 1.3 J/K/mol
276.14 K	271.78 ± 1 J/K/mol
276.23 K	282.52 ± 1.3 J/K/mol
276.26 K	287.86 ± 1.3 J/K/mol
276.39 K	283.24 ± 1.3 J/K/mol
276.54 K	281.92 ± 1.3 J/K/mol
276.86 K	283.12 ± 1.3 J/K/mol
277.05 K	284.94 ± 1.3 J/K/mol
277.17 K	283.69 ± 1.3 J/K/mol
277.18 K	287.21 ± 1.3 J/K/mol
277.48 K	283.57 ± 1.3 J/K/mol
277.71 K	285.67 ± 1.3 J/K/mol
277.8 K	284.34 ± 1.3 J/K/mol
278.11 K	284.89 ± 1.3 J/K/mol
278.31 K	288.04 ± 1.3 J/K/mol
278.37 K	287.66 ± 1.3 J/K/mol
278.38 K	274.55 ± 1 J/K/mol
278.43 K	285.39 ± 1.3 J/K/mol
278.71 K	274.33 ± 1 J/K/mol
278.74 K	285.79 ± 1.3 J/K/mol
279.05 K	283.84 ± 1.3 J/K/mol
279.06 K	284.24 ± 1.3 J/K/mol
279.23 K	285.22 ± 1.3 J/K/mol
279.37 K	283.12 ± 1.3 J/K/mol
279.45 K	283.07 ± 1.3 J/K/mol
279.71 K	282.87 ± 1.3 J/K/mol
279.74 K	283.84 ± 1.3 J/K/mol
280 K	275.2 ± 1 J/K/mol
280.05 K	283.69 ± 1.3 J/K/mol
280.37 K	283.64 ± 1.3 J/K/mol
280.38 K	282.97 ± 1.3 J/K/mol
280.57 K	284.27 ± 1.3 J/K/mol
280.66 K	275.03 ± 1 J/K/mol
280.69 K	284.49 ± 1.3 J/K/mol
281.02 K	283.67 ± 1.3 J/K/mol
281.05 K	283.87 ± 1.3 J/K/mol
281.33 K	283.77 ± 1.3 J/K/mol
281.48 K	276.46 ± 1 J/K/mol
281.65 K	284.82 ± 1.3 J/K/mol
281.7 K	285.57 ± 1.3 J/K/mol
281.71 K	285.19 ± 1.3 J/K/mol
281.97 K	283.94 ± 1.3 J/K/mol
282.27 K	286.17 ± 1.3 J/K/mol
282.29 K	285.04 ± 1.3 J/K/mol
282.39 K	285.19 ± 1.3 J/K/mol
282.6 K	284.74 ± 1.3 J/K/mol
282.84 K	286.54 ± 1.3 J/K/mol
282.91 K	276.63 ± 1 J/K/mol
282.92 K	285.39 ± 1.3 J/K/mol
283.05 K	284.89 ± 1.3 J/K/mol
283.24 K	285.54 ± 1.3 J/K/mol
283.56 K	286.89 ± 1.3 J/K/mol
283.72 K	285.69 ± 1.3 J/K/mol
283.88 K	287.24 ± 1.3 J/K/mol
283.97 K	287.54 ± 1.3 J/K/mol
284.2 K	286.71 ± 1.3 J/K/mol
284.24 K	278.43 ± 1 J/K/mol
284.43 K	286.89 ± 1.3 J/K/mol
284.52 K	286.41 ± 1.3 J/K/mol
284.89 K	287.61 ± 1.3 J/K/mol
285.09 K	286.69 ± 1.3 J/K/mol
285.11 K	288.04 ± 1.3 J/K/mol
285.16 K	279.3 ± 1 J/K/mol
285.21 K	287.79 ± 1.3 J/K/mol
285.23 K	288.34 ± 1.3 J/K/mol
285.54 K	287.61 ± 1.3 J/K/mol
285.76 K	287.46 ± 1.3 J/K/mol
285.86 K	289.01 ± 1.3 J/K/mol
286.18 K	287.86 ± 1.3 J/K/mol
286.25 K	289.39 ± 1.3 J/K/mol
286.42 K	287.76 ± 1.3 J/K/mol
286.51 K	286.29 ± 1.3 J/K/mol
286.83 K	288.26 ± 1.3 J/K/mol
287 K	280.48 ± 1 J/K/mol
287.09 K	288.31 ± 1.3 J/K/mol
287.16 K	288.41 ± 1.3 J/K/mol
287.4 K	289.81 ± 1.3 J/K/mol
287.46 K	280.82 ± 1 J/K/mol
287.49 K	289.64 ± 1.3 J/K/mol
